For test [1], the system named is Pancreatic cancer cells (CAPAN-2, PANC-1, MIAPACA-2, BXPC-3, HPAC, and CFPAC-1). Kind of test: MTS proliferation assay, pancreatic cancer cells. It is filed as cell-based. The settings on record: 48 h. As for the experimental part:
Fig. 4 N4 suppresses pancreatic cancer cell proliferation and migration and induces apoptosis. A Pancreatic cancer cells (CAPAN-2, PANC-1, MIAPACA-2, BXPC-3, HPAC, and CFPAC-1) and normal cells (HPNE, HAF) were incubated with the indicated concentration of N4 for 48 h. MTS assays were performed to detect the N4-mediated inhibition of cell proliferation. Data are shown as mean ± SD, *P < 0.05, **P < 0.01, ***P < 0.001, ****P < 0.0001, n.s. not significant by one-way ANOVA followed by multiple comparisons. B, C CAPAN-2, PANC-1, and MIAPACA-2 cells were treated with N4 (B) or C188-9 (C) for 7 days. The cells fixed and stained, and colony numbers were calculated. Experiments were carried out in triplicate with identical results obtained. […] Apoptotic cells were analyzed as described in Materials and Methods. […] In F, after 48 h transfection, transfected cells were seeded in 96-well plates, and cells were enumerated at day 1, day 2, and day 4, In G, different cells transfected with different siRNA were treated with the indicated concentrations of N4, and cell viability measured after a 48 h treatment. Data are expressed as mean ± SD, *P < 0.05, ***P < 0.001, n.s. not significant by one-way ANOVA followed by multiple comparisons. […] Data are expressed as mean ± SD, *P < 0.05, ***P < 0.001, n.s. not significant; Student’s t tests were performed. […]
A general note: Tetrazolium assays rely on reduction of a dye to a coloured formazan, in cell work by metabolically active cells.

The next test addresses T1, STAT3 dimerization (Homo sapiens, UniProt P40763).
T1 construct: endogenous in cells; host or cells: PANC-1
Kind of test: STAT3 dimerization experiment (immunoprecipitation). The settings on record: PANC-1 cells, 2 μM, with or without IL-6 stimulation. It is filed as cell-based. From the text: Fig. 3 N4 interacts with the STAT3-SH2 domain and interferes with the STAT3-EGFR and STAT3-NF-κB interactions. […] C–E The binding between N4 and STAT3 was examined in (C) SPR and (D) MST experiments. His-STAT3^127-722 protein was purified and used to examine the affinity between STAT3 and N4. (E) The binding between N4 and STAT3^SH2 was confirmed in MST assays. STAT3-SH2 protein was purified and labeled. N4 was serially diluted and mixed with equal volumes of labeled STAT3^SH2 protein. The MST signal was measured, and the data were analyzed by MO analysis software. F, G The FLAG-tag and HA-tag STAT3 expression plasmid was transfected into 293 T cells, followed by the addition of the indicated concentrations of N4. After 24 h, cells were lysed, and immunoprecipitation experiments were performed as described in Materials and Methods. H N4 represses STAT3 dimerization in pancreatic cancer cells. I After a 24 h treatment with 2 μM N4, pancreatic cancer cells were stimulated with IL-6 for 30 min. Cell lysates were immunoprecipitated with STAT3 overnight. The precipitates were washed, suspended in non-reducing sample buffer, and boiled for 10 min. The indicated antibodies were used for western blot assays. […]
Co-IP was performed as previously described. […] After overnight incubation, the precipitates were washed and analyzed using western blotting.

T1 sequence (P40763 2-770 limits assumed): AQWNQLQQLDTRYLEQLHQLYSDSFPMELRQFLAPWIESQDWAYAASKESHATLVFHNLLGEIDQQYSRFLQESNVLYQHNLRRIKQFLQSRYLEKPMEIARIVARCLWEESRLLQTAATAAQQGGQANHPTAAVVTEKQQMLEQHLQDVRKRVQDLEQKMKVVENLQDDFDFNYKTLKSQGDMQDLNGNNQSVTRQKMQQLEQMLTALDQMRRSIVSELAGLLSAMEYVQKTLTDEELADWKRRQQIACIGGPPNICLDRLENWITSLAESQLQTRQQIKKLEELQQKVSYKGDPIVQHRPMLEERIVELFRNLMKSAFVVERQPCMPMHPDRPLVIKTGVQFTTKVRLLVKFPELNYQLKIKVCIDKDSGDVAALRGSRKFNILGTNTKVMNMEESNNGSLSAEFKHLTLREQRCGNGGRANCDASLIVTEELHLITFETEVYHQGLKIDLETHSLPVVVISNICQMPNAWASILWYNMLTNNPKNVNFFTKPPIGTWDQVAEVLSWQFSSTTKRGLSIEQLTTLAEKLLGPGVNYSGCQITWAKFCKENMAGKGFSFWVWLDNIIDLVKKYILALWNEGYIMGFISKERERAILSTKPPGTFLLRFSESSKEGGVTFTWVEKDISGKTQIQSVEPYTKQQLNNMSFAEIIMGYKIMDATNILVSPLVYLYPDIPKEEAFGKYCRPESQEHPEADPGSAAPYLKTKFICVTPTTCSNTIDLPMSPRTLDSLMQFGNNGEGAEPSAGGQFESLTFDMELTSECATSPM

Regarding `COc1cc2c(cc1C(=O)Nc1cccc3cccnc13)CCC1C(C)(C)C(=O)C(C#N)=C[C@]21C` (some centres unmarked) [N4], the “proliferation of pancreatic cancer cells” value in test [1] is on record as “effectively inhibited”. Moreover, at STAT3 dimerization, the STAT3 dimerization entry was “efficiently decreased”.

(Values after publication PMC7906907, “Targeting STAT3 by a small molecule suppresses pancreatic cancer progression” (Oncogene, 2021).)
